One test addresses T1, MMP-2 (Homo sapiens, UniProt P08253).
T1 construct: made in house; host or cells: MMP-2-transfected p2AHT2 cells
T1 sequence (P08253 110-660): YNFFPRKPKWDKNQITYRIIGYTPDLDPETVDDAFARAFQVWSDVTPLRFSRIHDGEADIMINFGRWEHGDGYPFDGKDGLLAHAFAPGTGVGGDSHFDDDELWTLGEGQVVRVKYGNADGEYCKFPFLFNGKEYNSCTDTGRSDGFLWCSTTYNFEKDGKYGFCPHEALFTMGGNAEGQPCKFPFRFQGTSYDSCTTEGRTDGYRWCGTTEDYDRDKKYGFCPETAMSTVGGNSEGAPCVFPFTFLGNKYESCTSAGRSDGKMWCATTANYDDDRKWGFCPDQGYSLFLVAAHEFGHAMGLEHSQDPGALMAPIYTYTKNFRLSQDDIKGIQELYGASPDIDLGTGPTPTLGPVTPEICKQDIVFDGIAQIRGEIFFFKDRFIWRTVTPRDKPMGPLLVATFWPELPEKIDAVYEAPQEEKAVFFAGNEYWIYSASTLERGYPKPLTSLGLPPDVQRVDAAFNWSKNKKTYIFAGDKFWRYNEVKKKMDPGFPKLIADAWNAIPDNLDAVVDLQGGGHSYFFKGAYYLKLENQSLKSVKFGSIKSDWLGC
The experiment in a line: In vitro MMP inhibition, IC50 determination (fluorogenic substrate I). It is filed as biochemical. The note with it: value in parenthesis; read-out: MMP-2 (IC-50). The protocol: (§1) Several hydroxamic acids and salts thereof were analyzed in in vitro assays to determine their ability to inhibit the MMP cleavage of peptide substrates. […] and IC50 constants were calculated from the assayed hydroxamic acid-MMP interactions.
(§2) Human recombinant MMP-1, MMP-2, MMP-9, MMP-13, and MMP-14 were used in this assay. All enzymes were prepared in Assignee's laboratories following usual laboratory procedures. Protocols for the preparation and use of these enzymes are available in the scientific literature. See, e.g., Enzyme Nomenclature (Academic Press, San Diego, Calif., 1992) (and the citations therein). See also, Freije et al., “Molecular cloning and expression of collagenase-3, a novel human matrix metalloproteinase produced by breast carcinomas,” J Biol. Chem., 269(24), 16766-16773 (1994).
The MMP-2 proenzyme was purified by gelatin Sepharose chromatography from MMP-2-transfected p2AHT2 cells provided by Dr. Gregory Goldberg of Washington University (St. Louis, Mo.).
(§3) All MMPs were activated using 4-aminophenylmercuric acetate (“APMA”, Sigma Chemical, St. Louis, Mo.) or trypsin. MMP-9 also was activated using human recombinant MMP-3 (purified in Assignee's laboratory following standard cloning and purification techniques).
(§4) Two fluorogenic, methoxycoumarin-containing polypeptide substrates were used in the MMP inhibition assays: [drawing 427] Here, “Dpa” is 3-(2,4-dinitrophenyl)-L-2,3-diaminopropionyl group, and “MCA” is 7-methoxycoumarin-4-yl acetyl. Substrate (I) was purchased from Baychem (Redwood City, Calif.), and substrate II was prepared Assignee's laboratory. Substrate I was used in the IC50 determination assays, while substrate II was used in the Ki determination assays. In the absence of MMP inhibitory activity, either substrate is cleaved at the Gly-Leu peptide bond. This cleavage separates the highly fluorogenic peptide from the 2,4-dinitrophenyl quencher, thus resulting in increase of fluorescent intensity.
(§5) The stock solutions of the assayed hydroxamic acids (or salts thereof) were prepared in 1% dimethyl sulfoxide (DMSO). These stock solutions were diluted in Buffer A (100 mM Tris-HCl, 100 mM NaCl, 10 mM CaCl2, 0.05% polyoxyethylene 23 lauryl ether, pH 7.5) to obtain solutions with different hydroxamic acid concentrations, i.e., assay solutions with different concentrations of the assayed MMP inhibitory compound. The experiment controls contained the same amount of Buffer A/DMSO as the assayed sample, but contained no hydroxamic acid (or salt thereof).
(§6) The assays from which the IC50 determinations were made were performed as follows. The MMPs were activated with either trypsin or APMA (4-aminophenylmercuric acetate, Sigma Chemical, St. Louis, Mo.). The assayed hydroxamic acid samples were incubated in Microfluor™ White Plates (Dynatech, Chantilly, Va.) and analyzed on a Perkin Elmer L550 plate reader (Norwalk, Conn.). The excitation wavelength was 328 nm, and the emission wavelength—415 nm. All samples (assayed hydroxamic acids and controls) were incubated in separate plates at room temperature in the presence of 4 μM of MMP substrate (I). As stated in the previous paragraph, samples containing varying concentrations of the same assayed hydroxamic acid were prepared. Inhibition was measured as a reduction in fluorescent intensity as a function of MMP inhibitor concentration.
The above protocols were used to determine IC50 constants and Ki values for the compounds in Examples 1-27 above. All values in Table 2 are given in nM units. The IC50 measurements are in parenthesis.

The next test deals with T2, MMP-13 (Homo sapiens, UniProt P45452).
T2 construct: made in house; host or cells: baculovirus / insect cells
The description is as above. Format: biochemical. The conditions noted are these: value in parenthesis; read-out: MMP-13 (IC-50). The protocol:
as §1, §2
The MMP-13 was obtained as a proenzyme from a full-length cDNA clone using baculovirus, as described by V. A. Luckow, “Insect Cell Expression Technology,” Protein Engineering: Principles and Practice, pp. 183-218 (edited by J. L. Cleland et al., Wiley-Liss, Inc., 1996). The expressed proenzyme was first purified over a heparin agarose column, and then over a chelating zinc chloride column. The proenzyme was then activated by APMA for use in the assay. Further details on baculovirus expression systems may be found in, for example, Luckow et al., J. Virol., 67, 4566-79 (1993). See also, O'Reilly et al, Baculovirus Expression Vectors: A Laboratory Manual (W.H. Freeman and Co., New York, N.Y., 1992). See also, King et al., The Baculovirus Expression System: A Laboratory Guide (Chapman & Hall, London, England, 1992).
as §3, §4, §5
as §6, with “concentration. […]” for “concentration.”

As to `COCCN1CCC(C(=O)NO)(S(=O)(=O)N2CCN(c3ccc(C)cc3)CC2)CC1` [Example 194], the IC50 on MMP-2 turned out to be 0.5 nM; at MMP-13, 3.1 nM.

On to `O=C(NO)C1(S(=O)(=O)N2CCN(c3ccc(OC(F)(F)F)cc3)CC2)CCN(C2CC2)CC1` [Example 203], for which the IC50 on MMP-2 was under 0.1 nM; at MMP-13 it was 0.5 nM.

Consider `CCCCCc1ccc(N2CCN(S(=O)(=O)C3(C(=O)NO)CCOCC3)CC2)nn1` [Example 197], for which the IC50 is 19.1 nM on MMP-2 and 35.1 nM at MMP-13.

`COCCN1CCC(C(=O)NO)(S(=O)(=O)N2CCN(c3nc4ccccc4o3)CC2)CC1` [Example 196]: the IC50 at MMP-2 stood at 30.5 nM; at MMP-13, 177 nM.

For the molecule `COCCN1CCC(C(=O)NO)(S(=O)(=O)N2CCN(c3ccc(CC(C)C)cc3)CC2)CC1` [Example 192], the results for the IC50 at MMP-2 and on MMP-13 were 1.3 nM and 3.6 nM, respectively.

`CCC(C)Cc1ccc(N2CCN(S(=O)(=O)C3(C(=O)NO)CCN(CCOC)CC3)CC2)cc1` (stereo not drawn) [Example 190]: the IC50 at MMP-2 was found to be 1.6 nM; on MMP-13, 2.4 nM.

In the case of `CCCc1ccc(N2CCN(S(=O)(=O)C3(C(=O)NO)CCN(CCOC)CC3)CC2)cc1` [Example 200], the IC50 on MMP-2 is under 0.1 nM; on MMP-13, 0.6 nM.

For `COCCN1CCC(C(=O)NO)(S(=O)(=O)N2CCN(c3ccccc3)CC2)CC1` [Example 195], the IC50 came out at 2.4 nM at MMP-2 and 11.5 nM on MMP-13.

For `COCCN1CCC(C(=O)NO)(S(=O)(=O)N2CCN(c3ccc(Br)cc3)CC2)CC1` [Example 201], the IC50 was under 0.1 nM at MMP-2 and 0.8 nM on MMP-13.

With `CCCC(C)Cc1ccc(N2CCN(S(=O)(=O)C3(C(=O)NO)CCN(CCOC)CC3)CC2)cc1` (stereo not drawn) [Example 189], the results for the IC50 on MMP-2 and on MMP-13 were 1.9 nM and 1 nM, respectively.

Turning to `CCc1ccc(N2CCN(S(=O)(=O)C3(C(=O)NO)CCN(CCOC)CC3)CC2)cc1` [Example 193], the IC50 on MMP-2 stood at 0.2 nM; on MMP-13, 1.9 nM.

As for `COCCN1CCC(C(=O)NO)(S(=O)(=O)N2CCN(c3ccc(OC(F)(F)F)cc3)CC2)CC1` [Example 202], the values for the IC50 on MMP-2 and on MMP-13 were under 0.1 nM and 0.2 nM, respectively.

Take `O=C(NO)C1(S(=O)(=O)N2CCN(c3ccc(Cl)nn3)CC2)CCOCC1` [Example 198]: the IC50 stood at 18.2 nM at MMP-2 and 285 nM on MMP-13.

On to `COCCN1CCC(C(=O)NO)(S(=O)(=O)N2CCN(c3ccc(CCCCC(C)C)cc3)CC2)CC1` [Example 191], for which the IC50 was under 0.1 nM at MMP-2 and under 1 nM on MMP-13.

Regarding `CCCCCCc1ccc(N2CCN(S(=O)(=O)C3(C(=O)NO)CCN(CCOC)CC3)CC2)cc1` [Example 199], the IC50 on MMP-2 is under 0.1 nM; at MMP-13, 0.2 nM.

(Values after patent publication US20050209278A1, “Piperidinyl- and piperazinyl-sulfonylmethyl hydroxamic acids and their use as protease inhibitors” (priority 2002, published 2005).)
